{
  "source": "paper PMC11124525",
  "about": "“Pharmacokinetic–Pharmacodynamic Correlation Analysis of Rhodiola crenulata in Rats with Myocardial Ischemia” (Pharmaceuticals, 2024)",
  "key": {"AST": {"test_system": "AST", "assay": "PK-PD sigmoid-Emax model, PD index AST in MDG rats", "type": "in vivo, SD rats", "set-up": "unit not given beside the values"}, "[1]": {"conditions": "for Stability RE (%): rat plasma, n = 6", "method": "A series concentration mixed reference solution with different concentrations was added to 100 μL plasma, and was treated according to the method under Section 4.6 to obtain the matrix standard curve sample. Samples with concentrations of 400, 100, and 10 ng/mL, respectively, were taken as quality control (QC) samples of high, medium, and low concentrations (HQC, MQC, LQC). The method was validated, including linearity, inter-day/intra-day precision, repeatability, stability, extraction recovery, and matrix effect, according to FDA bioanalytical method validation guidelines."}, "SOD": {"test_system": "SOD", "assay": "PK-PD sigmoid-Emax model, PD index SOD in MDG rats", "type": "in vivo, SD rats", "set-up": "Ke0: unit not given beside the values"}, "[2]": {"conditions": "myocardial infarction induced by isoproterenol; cited from earlier work"}, "LDH": {"test_system": "LDH", "assay": "PK-PD sigmoid-Emax model, PD index LDH in MDG rats", "source_text": "Subsequently, we incorporated the PK and PD data to conduct PK-PD modeling through DAS.\nTherefore, PK-PD correlation analysis was used in this study, linking dynamic concentration–time processes and effect–time profile relationships [20, 21, 22]. […] The model adopted in this study is the S-Emax model. In the equation, γ means the shape factor in the formula, affecting the slope and determining the steepness of the curve. Emax can provide the maximum response intensity, and ED50 is for evaluating the safety of the drug, which is understood as the amount of the drug that causes 50% of the maximum response intensity.\nPlasma creatine kinase (CK), hydroxybutyrate dehydrogenase (HBDH), lactate dehydrogenase (LDH), and superoxide dismutase (SOD) activity was determined using an automatic biochemical analyzer.\nThe activity of the CK, HBDH, LDH, and SOD of plasma samples collected at different time points was determined using an automatic biochemical analyzer for PD index evaluation. […] Two compartmental methods were used, employing the drug and statistics, which was supplied by the Chinese Pharmacological Society. Then, the efficacy indicators were fitted in the PK-PD model."}, "[3]": {"assay": "PK of five RC components in sham operation administration (SDG, normal) rats after oral RC extract, HPLC-QQQ-MS/MS, DAS", "type": "in vivo, SD rats", "conditions": "SD, rat, in vivo, po, 2 g/kg", "method": "(§1) The drug concentration in plasma was calculated using the standard curve, and the mean blood concentration was plotted against the time to obtain the mean blood concentration–time curve (Figure 4).\n(§2) The rat model of MI was made with Pit. The rats were divided into a sham operation group (SG), sham operation administration group (SDG), model group (MG), and model administration group (MDG) (n = 6 for each group). The MI model was prepared via an intraperitoneal injection (a single time) of Pit in the MG and MDG, with a dosage of 20 U/kg and a volume of 10 mL/kg. At the same time, the rats in the SG and SDG groups were given the same volume of saline in the same way.\n(§3) RC extract (2 g/kg, equivalent to human clinical equivalent dose) was given to rats via oral administration in SDG and MDG, and the same volume of normal saline was orally administered to the SG and MG. Rats were fasted for 12 h before the experiment. Blood was collected from the fundus venous plexus at 0, 5, 10, 15, 30, 45 min, 1, 2, 4, 6, 8, 12, and 24 h after in gavage, placed in a centrifuge tube impregnated with heparin sodium, centrifuged at 3500 rpm for 15 min, and then the plasma was collected and divided into two parts. One part was used for biochemical index determination and the other part was used to determine the content of pharmaceutical ingredients in vivo. After the experiment, the rats were sacrificed, and the hearts were placed in paraformaldehyde for histopathological analysis.\n(§4) The plasma sample of 100 μL was accurately absorbed, 50 μL internal standard solution (Nimodipine, 500 ng/mL) was added, then 300 μL acetonitrile precipitated protein was added, vortex for 10 min, placed under ultrasound for 3 min, centrifuged at 13,000 rpm for 10 min, and then the supernatant was transferred to another centrifuge tube. It was then concentrated until dry with a rotary evaporator. The residue was redissolved with 100 μL 50% acetonitrile, swirled for 1 min, placed under ultrasonic for 3 min, centrifuged at 13,000 rpm for 10 min, and the supernatant was taken for analysis.\n(§5) A validated HPLC-QQQ-MS/MS method was used for the determination of drug-derived components in plasma samples at different time points. The accompanying standard curve was substituted to calculate the content of the compounds to be measured, and then the PK parameters were calculated using DAS software (version 3.2.8), and the blood concentration–time curve was plotted using GraphPad Prism (version 8.0.2). PK behavior was compared between the sham operation and model group, and PK models were established, respectively."}, "HBDH": {"test_system": "HBDH", "assay": "PK-PD sigmoid-Emax model, PD index HBDH in MDG rats", "type": "in vivo, SD rats", "set-up": "unit not given beside the values"}, "CK": {"test_system": "CK", "assay": "PK-PD sigmoid-Emax model, PD index CK in MDG rats", "type": "in vivo, SD rats", "set-up": "Emax: unit not given beside the values"}, "[4]": {"assay": "PK of five RC components in pituitrin-induced myocardial ischemia (MDG) rats after oral RC extract, HPLC-QQQ-MS/MS, DAS", "type": "in vivo, SD rats", "conditions": "SD, rat, in vivo, po, 2 g/kg", "method": "as §1, §2, §3, §4, §5"}},
  "note": "Where two headings read alike, the source gives them in different places.",
  "data": [
    {"molecule": "O=C(O)c1cc(O)c(O)c(O)c1", "note": "[Gallic Acid, gallic acid]", "values": [
      {"measurement": "Emax", "setting": "AST", "value": 1375.057},
      {"measurement": "Ke0", "setting": "AST", "value": 2.998},
      {"measurement": "Stability RE (%)", "setting": "[1]; 4 °C, 48 h, spiked 10 ng/mL", "value": 100.2, "unit": "%"},
      {"measurement": "Stability RE (%)", "setting": "[1]; 4 °C, 48 h, spiked 50 ng/mL", "value": 103.3, "unit": "%"},
      {"measurement": "Stability RE (%)", "setting": "[1]; 4 °C, 48 h, spiked 400 ng/mL", "value": 99.11, "unit": "%"},
      {"measurement": "Stability RE (%)", "setting": "[1]; three freeze–thaw cycles, spiked 10 ng/mL", "value": 98.58, "unit": "%"},
      {"measurement": "Stability RE (%)", "setting": "[1]; three freeze–thaw cycles, spiked 50 ng/mL", "value": 105.6, "unit": "%"},
      {"measurement": "Stability RE (%)", "setting": "[1]; three freeze–thaw cycles, spiked 400 ng/mL", "value": 90.26, "unit": "%"},
      {"measurement": "Stability RE (%)", "setting": "[1]; −80 °C, 10 days, spiked 10 ng/mL", "value": 99.77, "unit": "%"},
      {"measurement": "Stability RE (%)", "setting": "[1]; −80 °C, 10 days, spiked 400 ng/mL", "value": 96.65, "unit": "%"},
      {"measurement": "Stability in plasma samples (in words)", "setting": "[1]; simulated sample storage, handling and analysis (48 h at 4 °C and 10 days in 3 freeze–thaw cycles)", "value": "stable"},
      {"measurement": "Emax", "setting": "SOD", "value": 73.435},
      {"measurement": "Ke0", "setting": "SOD", "value": 0.022},
      {"measurement": "CLZ/F in modeled rats vs normal rats", "setting": "[2]", "value": "significantly decreased"},
      {"measurement": "T1/2 and MRT in modeled rats vs normal rats", "setting": "[2]", "value": "prolonged"},
      {"measurement": "Emax", "setting": "LDH", "value": 580.413},
      {"measurement": "AUC(0-inf)", "setting": "[3]", "value": "550 ± 169", "unit": "ng·h/mL"},
      {"measurement": "AUC(0-t)", "setting": "[3]", "value": "475 ± 112", "unit": "ng·h/mL"},
      {"measurement": "CL/F", "setting": "[3]", "value": 165, "unit": "mL/min/kg"},
      {"measurement": "Cmax", "setting": "[3]", "value": "103 ± 16.2", "unit": "ng/mL"},
      {"measurement": "MRT", "setting": "[3]", "value": "4.32 ± 1.26", "unit": "h"},
      {"measurement": "MRT inf", "setting": "[3]", "value": "8.92 ± 5.98", "unit": "h"},
      {"measurement": "Tmax", "setting": "[3]", "value": "0.92 ± 0.13", "unit": "h"},
      {"measurement": "Vd/F", "setting": "[3]", "value": "116 ± 83.1", "unit": "L/kg"},
      {"measurement": "half-life", "setting": "[3]", "value": "10.2 ± 8.73", "unit": "h"},
      {"measurement": "Emax", "setting": "HBDH", "value": 3540.625},
      {"measurement": "Ke0", "setting": "HBDH", "value": 0.439},
      {"measurement": "Emax", "setting": "CK", "value": 2290.745},
      {"measurement": "Ke0", "setting": "CK", "value": 1.909},
      {"measurement": "AUC(0-inf)", "setting": "[4]", "value": "664 ± 221", "unit": "ng·h/mL"},
      {"measurement": "AUC(0-t)", "setting": "[4]", "value": "531 ± 60.9", "unit": "ng·h/mL"},
      {"measurement": "CL/F", "setting": "[4]", "value": 136, "unit": "mL/min/kg"},
      {"measurement": "Cmax", "setting": "[4]", "value": "130 ± 19.9", "unit": "ng/mL"},
      {"measurement": "MRT", "setting": "[4]", "value": "5.53 ± 0.59", "unit": "h"},
      {"measurement": "MRT inf", "setting": "[4]", "value": "13.6 ± 10.6", "unit": "h"},
      {"measurement": "Vd/F", "setting": "[4]", "value": "134 ± 68.9", "unit": "L/kg"},
      {"measurement": "half-life", "setting": "[4]", "value": "13.8 ± 10.9", "unit": "h"},
      {"measurement": "Tmax", "setting": "[4]; Tmax", "value": "0.92 ± 0.13", "unit": "h"},
      {"measurement": "Tmax", "setting": "[4]; Tmax (approximate)", "value": "~1", "unit": "h"}
    ]}
  ]
}
